In PubChem BioAssay AID488890 (Southern Research Specialized Biocontainment Screening …, 2010) one finds IC50 data, which are given here for 102 compounds.

Records with an inconclusive call do not appear. Calls of active or inactive are those of the source. How the calls were made is not given here.

The experiment concerns Mycobacterium tuberculosis non-replicating, growth inhibition. In words: growth inhibition of non-replicating M. tuberculosis (AID 488890).
For `COc1cccc2cc(C(=O)NCc3ccc(F)cc3)c(=N)oc12`, the IC50 is 8.67 µM.
With `CC(CN1CCOCC1)OC(=O)c1ccc2c(c1)OCCO2` (configuration not stated), the IC50 is 33.5 µM (inactive).
As for `CCC(=O)N/N=C/c1ccc(-c2ccc(Cl)cc2)o1`, the figure is 8.36 µM; as for `COc1cc(NC(=O)C/C(C)=N/NC(=O)c2cccs2)c(OC)cc1Cl`, 7.93 µM; as for `CCOC(=O)c1ccc(COC(=O)c2cc3ccccc3oc2=O)o1`, 12.1 µM (inactive).
As for `CCCc1nnc(-c2ccc(OC)cc2)o1`, the figure is 1.24 µM; as for `O=C(N/N=C/c1ccc([N+](=O)[O-])s1)c1cccc(Br)c1`, 4.95 µM.
In the case of `CCOc1ccc(C(=O)Nc2nc3ccccc3[nH]2)cc1OCC`, the IC50 was 9.11 µM.
As to `Clc1c(OCCCn2ccnc2)ccc2ccccc12`, the IC50 was 9.74 µM.
As to `CC(C)(C)c1ccc(C(=O)N2CCCC2)s1`, the IC50 was 1.66 µM.
Take `Cc1ccc(NC(=O)COc2ccccc2CNC(C)(C)CC(C)(C)C)cc1`: the IC50 is 16.5 µM (inactive).
As for `O=C(N/N=C/c1ccc[nH]1)c1cccnc1`, the figure is 26.7 µM (inactive); as for `Cc1ccc(C)c(-c2nnc(NC(=O)c3ccc([N+](=O)[O-])o3)o2)c1`, 0.46 µM; as for `COc1ccccc1-n1c(=O)oc2ccc(Cl)cc2c1=O`, 12 µM (inactive).
For the compound `COc1ccc(CCNc2cc(-c3ccccc3)nc3ncnn23)cc1`, the IC50 is 0.49 µM.
Consider `CN1CCN(c2cc3c(cc2F)c(=O)c(C(=O)O)cn3CCF)CC1`, for which the IC50 is 7.52 µM.
For `Cc1cc(C)nc(/N=C(\N)Nc2ccc(-c3ccccc3)cc2)n1`, the concentration for half-maximal inhibition (IC50) was 3.5 µM.
Regarding `O=C(Nc1nc2c(Cl)cccc2s1)c1ccc([N+](=O)[O-])o1`, the IC50 was 1.56 µM.
As for `COC(=O)COc1cccc(NC(=O)c2ccc(Cl)cc2)c1`, the figure is 3.98 µM.
As for `N#Cc1ccc(N=c2ssnc2Cl)cc1`, the figure is 18.1 µM (inactive).
As for `Cc1nc([N+](=O)[O-])c(Br)n1Cc1ccccc1`, the figure is 14.1 µM (inactive); as for `COC(=O)C1=C(N)OC2=C(C(=O)CC(C)(C)C2)C1c1cccnc1` (configuration not stated), 14.5 µM (inactive); as for `CCOC(=O)c1ccc(N=C(CC)c2c(O)n(C)c(=O)n(C)c2=O)cc1`, 8.28 µM.
For `CCOC(=O)c1c(C)[nH]c(C)c1C(=O)COC(=O)c1ccc([N+](=O)[O-])s1`, the IC50 is 1.65 µM.
Consider `COc1cc2c(cc1OC)CN(CCC(=O)c1ccc(Br)cc1)CC2`, for which the IC50 is 6.03 µM.
As for `Cc1nn2c(NCc3ccccn3)cc(C(C)C)nc2c1-c1ccccc1`, the figure is 1.44 µM; as for `CCCCOC(=O)Cn1c(-c2ccccc2)nc2ccccc2c1=O`, 11.3 µM (inactive); as for `CCN(CC)c1ccc2c(c1)oc(=O)c1c(Cl)cc(=O)oc12`, 3.7 µM.
As for `CCn1nnc(NC(=O)c2ccc(-c3ccc(Cl)cc3)o2)n1`, the figure is 3.07 µM; as for `COc1ccc(C(=O)CC(=O)C(=O)NCCc2cccc(C)c2)cc1`, 4.42 µM.
As for `COc1ccc(C(=O)OCn2nnc3ccccc3c2=O)cc1[N+](=O)[O-]`, the figure is 15.8 µM (inactive); as for `OC(CNCC1CCCO1)Cn1c2ccc(Cl)cc2c2cc(Cl)ccc21` (configuration not stated), 8.38 µM; as for `COc1ccc(C(=O)Nc2nnc(C3=COCCO3)o2)cc1`, 7.69 µM.
Consider `CCCCN1C(=O)C2(NNc3ccccc3O2)c2ccccc21` (configuration not stated), for which the IC50 was 4.67 µM.
As for `COc1cc(OC)cc(OC(=O)c2ccc3c(=O)n4c(nc3c2)CCC4)c1`, the figure is 4.95 µM.
For `O=C(Nc1nccs1)c1sc2ccccc2c1Cl`, the IC50 is 14.3 µM (inactive).
As for `Cc1cccc(OCC(O)Cn2c(=N)n(Cc3ccccc3)c3ccccc32)c1` (configuration not stated), the figure is 20.4 µM (inactive).
On to `O=C1/C(=C/c2cccs2)COc2ccccc21`, for which the IC50 was 13.9 µM (inactive).
Take `CCC(=O)Nc1nc2ccccc2n1Cc1ccc(Cl)cc1`: the concentration for half-maximal inhibition (IC50) was 0.84 µM.
For the compound `O=C1/C(=C\c2ccco2)SC(=S)N1c1ccc(O)cc1`, the IC50 was 33.3 µM (inactive).
As for `Cc1ccc(-c2nnc(SCC#CCOC(=O)c3ccco3)o2)cc1`, the figure is 0.11 µM.
As for `Cc1nc2scc(-c3ccccc3)c2c(=O)o1`, the figure is 14.8 µM (inactive).
As for `CCC1CCC(c2nnc(-c3ccc([N+](=O)[O-])cc3)o2)CC1` (configuration not stated), the figure is < 0.1 µM.
As to `CC(C)c1nnc(NC(=O)c2c(O)c3cccc4c3n(c2=O)CCC4)s1`, the concentration for half-maximal inhibition (IC50) was 1.24 µM.
For `O=C(OCC(=O)N1CCCC1)c1cc(Br)ccc1Cl`, the IC50 was 6.94 µM.
With `COc1ccc(OCCOC(=O)c2cccs2)cc1`, the IC50 was 27.6 µM (inactive).
As for `CC(=O)CCC1CC(c2ccc(Cl)cc2)=NO1` (configuration not stated), the figure is 2.39 µM; as for `O=C(CCSc1ccccc1)N1CCCC1`, 3.33 µM; as for `CCOC(=O)c1ccc(N=CC2=C(O)CC(C)(C)CC2=O)cc1`, 3.85 µM.
As for `Oc1ccccc1CN1CCCC(N2CCN(c3cccc(C(F)(F)F)c3)CC2)C1` (configuration not stated), the IC50 was 21.5 µM (inactive).
As for `Oc1ccc(F)c2cccnc12`, the figure is 1.61 µM.
Regarding `Cc1ccccc1OCCCCc1c(C)n[nH]c1C`, the IC50 was 13.1 µM (inactive).
In the case of `O=C1Nc2cc(C(=O)NCCN3CCCCCC3)ccc2S/C1=C\c1ccccc1`, the IC50 was 12.5 µM (inactive).
For the compound `S=C(Nc1ccc2c(c1)OCO2)Nc1ccc2c(c1)OCO2`, the IC50 was 12.8 µM (inactive).
As for `CCCn1c(NC(=O)c2ccccc2)nc2ccccc21`, the figure is 8.74 µM; as for `O=C(Nc1ccc(N2CCN(C(=O)c3ccco3)CC2)c(Cl)c1)c1cccs1`, 9.56 µM.
As for `O=C(OCC(=O)N1CCCc2ccccc21)c1ccc(S(=O)(=O)C(F)F)cc1`, the figure is 20.5 µM (inactive).
Regarding `CCOC(=O)COc1ccc2c(=O)c(-c3ccccc3OC)coc2c1`, the IC50 is 2.28 µM.
As for `CCOc1ccc(Cn2c(=O)oc3ccccc32)cc1`, the figure is 0.83 µM; as for `Nc1ccc(Nc2ccccc2)cc1`, 6 µM.
As to `Cc1ccc2nc(N(CCCN(C)C)C(=O)c3ccc4c(c3)CCCC4)sc2c1`, the IC50 is 14.5 µM (inactive).
As for `CNC(=S)N1CCN(c2c(F)cc3c(=O)c(C(=O)O)cn(C4CC4)c3c2OC)CC1C` (configuration not stated), the figure is 0.42 µM; as for `CC1CCN(CCOCCSc2ccc(Cl)cc2)CC1`, 19.7 µM (inactive); as for `C/C(=N/NC(=O)c1cc2ccccc2cc1O)C1C(=O)c2ccccc2C1=O`, 1.24 µM.
On to `Cc1nc2ccc(NC(=O)c3ccc([N+](=O)[O-])cc3[N+](=O)[O-])cc2s1`, for which the IC50 was 7.88 µM.
In the case of `O=C(COc1ccc([N+](=O)[O-])cc1)NNC(=O)c1cccs1`, the IC50 is 28.1 µM (inactive).
As for `CCOc1ccc(-c2nnc(NC(=O)CCCOc3cccc(C)c3)o2)cc1`, the figure is 15 µM (inactive); as for `O=C(CCN1C(=O)S/C(=C\c2ccc(F)cc2)C1=O)Nc1ccc(C(=O)O)c(O)c1`, 0.17 µM.
As for `O=C(N/N=C/c1ccc(OC(=O)c2ccco2)cc1)c1ccccn1`, the figure is 6.05 µM; as for `Cc1ccc(CN2CC(C(=O)OCc3ccccc3Cl)CC2=O)cc1` (configuration not stated), 8.11 µM.
Consider `O=C(COC(=O)c1cc(Br)ccc1Cl)NC1CCCC1`, for which the IC50 is 4.84 µM.
As for `CCOc1ccc2nc(NC(=O)c3ccccn3)sc2c1`, the figure is 1.03 µM; as for `Cn1cccc1/C=C1/C(=O)NC(=S)N(Cc2ccc(F)cc2)C1=O`, 6.03 µM; as for `Cc1cc(Br)ccc1OCCCCN1CCC(C)CC1`, 9.63 µM.
As for `Cc1cc(/C=N\NC(=O)c2cccs2)c(C)n1-c1ccc2ncccc2c1`, the figure is > 25 µM (inactive).
For `C=CCn1c(C)cc(C2=NNC(=NCc3ccccc3)SC2)c1C`, the IC50 was 7.71 µM.
For the compound `CN(C)CCOc1nc(-c2ccccc2)nc2c1oc1ccccc12`, the IC50 is 14.3 µM (inactive).
As for `CN1CCN(c2ccc(NC(=O)c3ccc(-c4ccc(Cl)cc4)o3)cc2)CC1`, the figure is 5.1 µM; as for `Cc1c(C(=O)N(C)C)sc2nc(-c3ccccn3)[nH]c(=O)c12`, 32.7 µM (inactive); as for `O=c1c(O)c(-c2cccs2)oc2ccc(Cl)cc12`, 1.08 µM.
Turning to `CCCCCCOc1ccc(C(=O)O)cc1C#N`, the IC50 was 42.7 µM (inactive).
As for `S=C1NC2(CCCC2)N=C1c1ccccc1`, the figure is 12.4 µM (inactive); as for `CC(=O)c1ccc(NC(=O)CCc2ccc(C)o2)cc1`, 25.8 µM (inactive); as for `O=C(NCc1ccc(F)cc1)c1ccc(Br)o1`, 0.51 µM.
As for `c1cncc(-c2noc(CC3CCCCC3)n2)c1`, the figure is 1.25 µM.
As to `O=C(c1ccc(Cl)cc1)N1N=C(c2ccccn2)CC1(O)C(F)(F)F` (configuration not stated), the IC50 is 5.51 µM.
As for `CN(C)c1c2ccccc2nc2c(F)c(F)c(F)c(F)c12`, the figure is 5.75 µM.
As for `O=C(N/N=C(\c1ccccc1)c1cccnc1)c1cccc(F)c1`, the figure is 3.88 µM; as for `Cc1cc(NCCCn2ccnc2)n2ncc(-c3ccc(Cl)cc3)c2n1`, 13.1 µM (inactive); as for `Cc1cc(C)n(-c2ccc3cccc(NS(C)(=O)=O)c3n2)n1`, 4.85 µM.
Take `CCOc1ccc2nc(NC(=O)c3cnc(C)cn3)sc2c1`: the IC50 was 4.32 µM.
As to `CN1c2ccsc2/C(=N/Nc2ccccc2)CS1(=O)=O`, the IC50 is 0.29 µM.
With `CCCn1c(NC(=O)c2ccc([N+](=O)[O-])o2)nc2ccccc21`, the IC50 was 7.64 µM.
As for `O=C(NCc1nnc(SC/C=C/c2ccccc2)o1)c1ccco1`, the figure is 4.25 µM; as for `O=C(COC(=O)c1ccccc1)NC12CC3CC(CC(C3)C1)C2`, 24 µM (inactive).
As for `CC1(C)CC(=O)C2=C(C1)OC(N)=C([N+](=O)[O-])C2c1ccc(C#N)s1` (configuration not stated), the figure is 11.1 µM (inactive).
As for `CC(=O)Nc1ccc(NC(=O)c2cc([N+](=O)[O-])cc([N+](=O)[O-])c2)cc1`, the figure is 8.92 µM; as for `CCOCC(=O)Nc1ccc(C)c(Cl)c1`, 5.63 µM.
With `Cc1ccccc1-n1c(C)cc(/C=N/NC(=O)c2ccncc2)c1C`, the IC50 is 0.65 µM.
As for `CSC1=NSC2=NC(=O)/C(=C\c3cccs3)C(=N)N12`, the figure is 4.51 µM; as for `O=C(NNc1nc2cc3c(cc2s1)OCCO3)c1ccccc1`, 23.5 µM (inactive).
Take `CCOc1ccc2ccccc2c1/C=N/NC(=O)c1ccncc1`: the IC50 is 0.58 µM.

What is called IC50 is the concentration that gives 50% inhibition.
